Test results as given in patent US20110165115A1, “SYNERGISTIC ATTRACTANTS FOR PESTIFEROUS SOCIAL INSECTS” (STERLING INTERNATIONAL INC., priority 2010, published 2011).

Key:
D. maculata [1] = assay: Field trapping Experiment 2, DMNT dose-response with W•H•Y top attractants; assay type: in vivo, Dolichovespula maculata; settings: Exp 2, DMNT added to WHY top attractant
Protocol: (§1) Three field trapping experiments were carried out during late July to early August 2009, in residential and woody areas around Spokane, Wash., USA, using the newly marketed Rescue® W•H•Y traps (www.rescue.com). As used herein, the W•H•Y trap is a trap in accordance with the description of United States Patent Application Publication No. 2009/0151228. The W•H•Y trap has a top chamber and a bottom chamber. The top chamber is baited with two attractants—one of which is a solid contained in a vial (2-methyl-1-butanol) and the other a liquid mixed with water (acetic acid), herein referred to as the W•H•Y top attractant. The bottom chamber is baited with a liquid attractant (heptyl butyrate) poured onto a cotton pad, herein referred to as the W•H•Y bottom attractant. Separation of the top and bottom attractants (otherwise antagonistic to each other when released from the same chamber) in two chambers was a design feature of this trap and creates two focal attraction sources from one trap for different species of wasps, hornets, and yellowjackets. Traps were hung 1.5-2.0 m above the ground on either the fence or tree branches ca. 5 m apart within each trap line. For each trapping experiment, six sets of traps were deployed with their initial trap positions within each set being randomized. To minimize positional effects and obtain more replications, wasp collections and trap re-randomization were carried out when ≧10-20 wasps were caught in the best trap. Each replicate lasted several days depending on wasp flight activity. Captured wasps were removed from the traps and kept in the zip-bags before taking back to the laboratory for recording of the species, gender status, and catch.
(§2) Experiment 1 (Jul. 22-30, 2009) tested ten synthetic HIPV candidates [(E)-2-hexenal, (Z)-3-hexen-1-ol, (Z)-3-hexenyl acetate, cis-ocimene, linalool, methyl salicylate, geranyl acetate, trans-β-caryophyllene, trans-β-farnesene and (E)-4,8-dimethyl-1,3,7-nonatriene], including several paper wasp EAD-active compounds (see FIG. 2 for details), to determine their potential synergistic effect on the Rescue® W•H•Y trap attractants to paper wasps, yellowjackets, and hornets. Experiment 2 (Aug. 5-13, 2009) tested behavioral responses of the paper wasps and yellowjackets to the Rescue® W•H•Y trap attractants (top attractants only) and its combination with (E)-4,8-dimethyl-1,3,7-nonatriene, one of the EAD-active and behaviorally significant HIPVs, in a dose-response fashion. Experiment 3 (Aug. 5-13, 2009) was conducted to determine the potential behavioral activity of different doses of (E)-4,8-dimethyl-1,3,7-nonatriene alone. The individual (or different doses) HIPVs were loaded into either polyethylene bags or centrifuge tube type of dispensers, and released from the top of the W•H•Y trap chamber. W•H•Y trap attractants (both top and bottom or top only) alone and water (top chamber only) were included in the test as positive and blank controls, respectively. The dispenser types, loading and release rates of the tested semiochemicals are described in Tables 1, 2 and 3.
(§3) Trap catch data were converted to proportion (P) of total captured wasps within each replicate. Data were then transformed by arcsin√P to meet the assumptions of normality and homogeneity of variances for ANOVA. Means were compared by ANOVA followed by the Ryan-Einot-Gabriel-Welsh (REGW) multiple Q test (SPSS 16.0 for Windows) at α=0.05.

[2] = tested on: paper wasps and yellowjackets; assay: Field trapping bioassays, synergism with AA/2MB (summary); assay type: in vivo; settings: at the doses tested
Protocol: as §1
(§4) Experiment 3 (Aug. 5-13, 2009) was conducted to determine the potential behavioral activity of different doses of (E)-4,8-dimethyl-1,3,7-nonatriene alone. The individual (or different doses) HIPVs were loaded into either polyethylene bags or centrifuge tube type of dispensers, and released from the top of the W•H•Y trap chamber. […]

V. atropilosa = assay: Field trapping Experiment 3, different doses of DMNT alone; assay type: in vivo, Vespula atropilosa
Protocol: as §1
(§5) Experiment 3 (Aug. 5-13, 2009) was conducted to determine the potential behavioral activity of different doses of (E)-4,8-dimethyl-1,3,7-nonatriene alone. The individual (or different doses) HIPVs were loaded into either polyethylene bags or centrifuge tube type of dispensers, and released from the top of the W•H•Y trap chamber. W•H•Y trap attractants (both top and bottom or top only) alone and water (top chamber only) were included in the test as positive and blank controls, respectively. The dispenser types, loading and release rates of the tested semiochemicals are described in Tables 1, 2 and 3.
as §3

P. dominulus [3] = assay: as above; assay type: in vivo, Polistes dominulus
Protocol: as §1, §5, §3

V. vulgaris [4] = assay: Field trapping Experiment 2, DMNT dose-response with W•H•Y top attractants; assay type: in vivo, Vespula vulgaris; settings: Exp 2, DMNT added to WHY top attractant
Protocol: as §1, §5, §3

V. acadica = assay: Field trapping Experiment 3, different doses of DMNT alone; assay type: in vivo, Vespula acadica
Protocol: as §1, §5, §3

[5] = tested on: paper wasps, yellowjackets, or hornets; assay: Field trapping Experiment 3, DMNT alone; assay type: in vivo; settings: Exp 3, different doses alone, without any W•H•Y attractants
Protocol: as §1, with “To minimize positional effects and obtain more replications, wasp collections and trap re-randomization were carried out when ≧10-20 wasps were caught in the best trap. Each replicate lasted several days depending on wasp flight activity. Captured wasps were removed from the traps and kept in the zip-bags before taking back to the laboratory for recording of the species, gender status, and catch.” left out

V. germanica = assay: Field trapping Experiment 3, different doses of DMNT alone; assay type: in vivo, Vespula germanica
Protocol: as §1, §5, §3

V. vulgaris [6] = assay: as above; assay type: in vivo, Vespula vulgaris
Protocol: as §1, §5, §3

yellowjackets = assay: Field trapping Experiment 1, top chamber catches; assay type: in vivo; settings: Exp 1; HIPV combined with W•H•Y attractant (acetic acid and 2-methyl-1-butanol) in the top chamber
Protocol: as §1, §4

D. maculata [7] = assay: Field trapping Experiment 3, different doses of DMNT alone; assay type: in vivo, Dolichovespula maculata
Protocol: as §1, §2, §3

P. dominulus [8] = assay: Field trapping Experiment 2, DMNT dose-response with W•H•Y top attractants; assay type: in vivo, Polistes dominulus; settings: Exp 2, DMNT added to WHY top attractant
Protocol: as §1, §5, §3

D. arenaria = assay: Field trapping Experiment 3, different doses of DMNT alone; assay type: in vivo, Dolichovespula arenaria
Protocol: as §1, §2, §3

[9] = release rate 0.25, hole 0.5 mm, loading 15 μL
[10] = release rate 0.5, hole 1 mm, loading 30 μL
[11] = release rate 1, hole 2 mm, loading 75 μL
[12] = release rate 1.5, hole 3 mm, loading 175 μL
[13] = release rate 2, hole 5.5 mm, loading 325 μL
[14] = Exp 3, release rate 0.25, hole 0.5 mm, loading 15 μL
[15] = Exp 3, release rate 0.5, hole 1 mm, loading 30 μL
[16] = Exp 3, release rate 1, hole 2 mm, loading 75 μL
[17] = Exp 3, release rate 1.5, hole 3 mm, loading 175 μL
[18] = Exp 3, release rate 2, hole 5.5 mm, loading 325 μL

Compound: C=C/C=C(\C)CCC=C(C)C [(E)-4,8-dimethyl-1,3,7-nonatriene]
- Total Yellowjackets Caught D. maculata (D. maculata [1]; [9]): 0
- Total Yellowjackets Caught D. maculata (D. maculata [1]; [10]): 1
- Total Yellowjackets Caught D. maculata (D. maculata [1]; [11]): 1
- Total Yellowjackets Caught D. maculata (D. maculata [1]; [12]): 0
- Total Yellowjackets Caught D. maculata (D. maculata [1]; [13]): 0
- synergism of attraction to mixture of acetic acid and 2-methyl-1-butanol [2]: synergize
- synergism of attraction to mixture of acetic acid and 2-methyl-1-butanol ([2]; listed as (E)-4,8-dimenthyl-1,3,7-nonatriene): significantly synergize
- Total Yellowjackets Caught V. atropilosa (V. atropilosa; [14]): 2
- Total Yellowjackets Caught V. atropilosa (V. atropilosa; [15]): 1
- Total Yellowjackets Caught V. atropilosa (V. atropilosa; [16]): 0
- Total Yellowjackets Caught V. atropilosa (V. atropilosa; [17]): 0
- Total Yellowjackets Caught V. atropilosa (V. atropilosa; [18]): 1
- Total Paper Wasps Caught P. dominulus (P. dominulus [3]; [14]): 7
- Total Paper Wasps Caught P. dominulus (P. dominulus [3]; [15]): 6
- Total Paper Wasps Caught P. dominulus (P. dominulus [3]; [16]): 4
- Total Paper Wasps Caught P. dominulus (P. dominulus [3]; [17]): 17
- Total Paper Wasps Caught P. dominulus (P. dominulus [3]; [18]): 10
- Total Yellowjackets Caught V. vulgaris (V. vulgaris [4]; [9]): 8
- Total Yellowjackets Caught V. vulgaris (V. vulgaris [4]; [10]): 8
- Total Yellowjackets Caught V. vulgaris (V. vulgaris [4]; [11]): 5
- Total Yellowjackets Caught V. vulgaris (V. vulgaris [4]; [12]): 5
- Total Yellowjackets Caught V. vulgaris (V. vulgaris [4]; [13]): 1
- Total Yellowjackets Caught V. acadica (V. acadica; [14]): 0
- Total Yellowjackets Caught V. acadica (V. acadica; [15]): 0
- Total Yellowjackets Caught V. acadica (V. acadica; [16]): 0
- Total Yellowjackets Caught V. acadica (V. acadica; [17]): 0
- Total Yellowjackets Caught V. acadica (V. acadica; [18]): 0
- attraction alone versus water blank control traps [5]: not different
- attraction alone versus water blank control traps ([5]; listed as DMNT): not significantly attractive
- Total Yellowjackets Caught V. germanica (V. germanica; [14]): 0
- Total Yellowjackets Caught V. germanica (V. germanica; [15]): 0
- Total Yellowjackets Caught V. germanica (V. germanica; [16]): 0
- Total Yellowjackets Caught V. germanica (V. germanica; [17]): 0
- Total Yellowjackets Caught V. germanica (V. germanica; [18]): 0
- Total Yellowjackets Caught V. vulgaris (V. vulgaris [6]; [14]): 4
- Total Yellowjackets Caught V. vulgaris (V. vulgaris [6]; [15]): 6
- Total Yellowjackets Caught V. vulgaris (V. vulgaris [6]; [16]): 4
- Total Yellowjackets Caught V. vulgaris (V. vulgaris [6]; [17]): 2
- Total Yellowjackets Caught V. vulgaris (V. vulgaris [6]; [18]): 5
- effect on trap catches of yellowjackets in the top chambers (yellowjackets): significantly increased
- Total Yellowjackets Caught D. maculata (D. maculata [7]; [14]): 0
- Total Yellowjackets Caught D. maculata (D. maculata [7]; [15]): 0
- Total Yellowjackets Caught D. maculata (D. maculata [7]; [16]): 0
- Total Yellowjackets Caught D. maculata (D. maculata [7]; [17]): 0
- Total Yellowjackets Caught D. maculata (D. maculata [7]; [18]): 0
- Total Paper Wasps Caught P. dominulus (P. dominulus [8]; [9]): 7
- Total Paper Wasps Caught P. dominulus (P. dominulus [8]; [10]): 2
- Total Paper Wasps Caught P. dominulus (P. dominulus [8]; [11]): 13
- Total Paper Wasps Caught P. dominulus (P. dominulus [8]; [12]): 8
- Total Paper Wasps Caught P. dominulus (P. dominulus [8]; [13]): 5
- Total Yellowjackets Caught D. arenaria (D. arenaria; [14]): 0
- Total Yellowjackets Caught D. arenaria (D. arenaria; [15]): 0
- Total Yellowjackets Caught D. arenaria (D. arenaria; [16]): 0
- Total Yellowjackets Caught D. arenaria (D. arenaria; [17]): 0
- Total Yellowjackets Caught D. arenaria (D. arenaria; [18]): 0
